Test results: patent US4882349A, “Pyrrolacetic amides having antiinflammatory activity” (priority 1982, dated 1989)
Where two headings read alike, the source gives them in different places.

Tests used:
solubility = type: physicochemical
gastric lesions = type: in vivo, male Wistar rats; conditions: 4 consecutive days; for mean severity: scale 0 (no lesion) to 5 (perforations)
Protocol: Male Wistar rats weighing 180 g were randomized into groups of 10. Three doses of each compound were administered. One group received the vehicle alone (10 ml/kg b.w.). Each dose was given orally for four days consecutively and the rats were sacrificed on the fifth day for necropsy. The ulcerogenic effect was evaluated by the following scale:
(1) each haemorrhagic point at least 1 mm in diameter was scored as 1 lesion,
(2) haemorrhagic points less than 1 mm in diameter were scored in the following manner:
(c) 20 to 29=three lesions
By means of this scale it was possible to obtain the gastric damage index:
I=mean no. of lesions+mean of severity+% incidence/10

Rats = conditions: rat, in vivo
[1] = tested on: brewers' yeast-induced hyperthermia; experiment: antipyretic activity, brewers' yeast-induced hyperthermia; type: in vivo, albino male Wistar rats
Protocol: The animals were caged under the same conditions as those described in the preceding tests. Five hours following […], determined by a rectal probe connected to a YSI thermometer (73 ATP model, Yellow Springs Instrument Company) were selected for the experiment. The animals were then randomized into groups of 10 and the compounds under examination and the vehicle were administered via the oral and parenteral routes testing each dose in two groups. Body temperature was determined at one, two and three hours after administration of the substances. […]

[2] = tested on: phenyl-p-quinone-induced writhing (abdominal contractions); experiment: phenylquinone-induced writhing test (analgesic activity), compound given 30 min before phenyl-p-quinone; type: in vivo, male Wistar rats
Protocol: Male Wistar rats weighing 110±5 g were caged for 10 days at 22±1° C. and given a balanced diet with free access to water. Twenty-four hours before the experiment the animals were randomized into groups of 10 and fasted for 14 hours but with free access to water. Each dose was tested in 3 groups of rats. Thirty minutes following administration either orally or parenterally of the products to be tested and the vehicle alone (0.5% carboxymethyl-cellulose in physiological saline) in the control animals, each rat was given 2 ml of a 5% absolute ethanol aqueous solution containing 0.36% of phenyl-p-quinone (Sigma Chemical Company) in order to provoke writhings. Fifteen minutes after administration of phenyl-p-quinone the number of contractions were counted for 20 minutes. The inhibiting effect of the compounds under examination on the abdominal contractions induced by phenyl-p-quinone was calculated by the following formula: % protection= [formula]
Table V lists the tested compounds, doses, routes of administration and their efficacy expressed as percentage of protection, taking into account that phenyl-p-quinone was administered thirty minutes after the compounds.

[3] = tested on: carrageenin-induced oedema; experiment: carrageenin-induced oedema test (anti-inflammatory activity); type: in vivo, albino male Wistar rats
Protocol: This effect was evaluated by means of an experimental model reproducing acute inflammation: for this purpose the carrageenin- induced oedema test was employed following the method described by C.
Albino male Wistar rats weighing 140-160 g were caged for 10 days at 22±1° C. and given a balanced diet and water ad libitum. Eighteen hours before the experiment the animals were randomized into groups of ten and fasted but with free access to water. Each dose was tested in three groups of rats. Each compound was given either orally, by gavage, or parenterally--intraperitoneal injection--administering as follows:
controls: 0.5% carboxymethylcellulose suspension in physiological saline, 10 ml/kg
treated: suspension of the compounds to be tested in the same vehicle and at the same volume (10 ml/kg) used for the controls at the doses specified below.
One hour after administration of the compounds and vehicle, in order to provoke the oedema for determining the protective effect of the substances under examination, each rat received, by subcutaneous injection into the plantar surface of the left paw, 0.1 ml of 1% sterile carrageenin suspension.

Mice = conditions: mouse, in vivo

CCOC(=O)CNC(=O)Cc1ccc(C(=O)c2ccc(C)cc2)n1C [Compound 1-b, 1-methyl-5-p-toluoylpyrrole-2-acetamidoacetic acid ethyl ester]
Solubility (solubility): soluble in the usual organic solvents

Cc1ccc(C(=O)c2ccc(CC(=O)NNCC(=O)N3CCN(C)CC3)n2C)cc1 [Compound 1-o, 1-methyl-5-p-toluoylpyrrole-2-acetic acid-2 [N-(4-methyl-1-piperazinyl)acetamide] hydrazide]
mean no. of lesions (gastric lesions; 50 mg/Kg orally): 1
gastric damage index (gastric lesions; 50 mg/Kg orally, I=mean no. of lesions+mean of severity+% incidence/10): 9
mean severity (gastric lesions; 50 mg/Kg orally): 1
mean no. of lesions (gastric lesions; 100 mg/Kg orally): 2
mean severity (gastric lesions; 100 mg/Kg orally): 1
mean no. of lesions (gastric lesions; 200 mg/Kg orally): 2
LD50 (Rats; ip): 700 mg/kg
LD50 (Rats; po): 978 mg/kg
% Temperature decrease ([1]; 50 mg/Kg i.p., 1 h): 13.0%
% Temperature decrease ([1]; 50 mg/Kg i.p., 2 h): 27.5%
% Temperature decrease ([1]; 50 mg/Kg i.p., 3 h): 39.6%
% Temperature decrease ([1]; 50 mg/Kg per os, 1 h): 12.0%
% Temperature decrease ([1]; 50 mg/Kg per os, 2 h): 23.1%
% Temperature decrease ([1]; 50 mg/Kg per os, 3 h): 35.2%
% Temperature decrease ([1]; 75 mg/Kg i.p., 1 h): 18.0%
% Temperature decrease ([1]; 75 mg/Kg i.p., 2 h): 27.0%
% Temperature decrease ([1]; 75 mg/Kg i.p., 3 h): 49.6%
% Temperature decrease ([1]; 75 mg/Kg per os, 1 h): 16.0%
% Temperature decrease ([1]; 75 mg/Kg per os, 2 h): 25.2%
% Temperature decrease ([1]; 75 mg/Kg per os, 3 h): 40.2%
% Temperature decrease ([1]; 100 mg/Kg i.p., 1 h): 30.1%
% Temperature decrease ([1]; 100 mg/Kg i.p., 2 h): 45.0%
% Temperature decrease ([1]; 100 mg/Kg i.p., 3 h): 62.1%
% Temperature decrease ([1]; 100 mg/Kg per os, 1 h): 29.1%
% Temperature decrease ([1]; 100 mg/Kg per os, 2 h): 33.7%
% Temperature decrease ([1]; 100 mg/Kg per os, 3 h): 59.0%
% Protection ([2]; 5 mg/Kg i.p.): 35.1%
% Protection ([2]; 5 mg/Kg per os): 29.3%
% Protection ([2]; 10 mg/Kg i.p.): 63.9%
% Protection ([2]; 10 mg/Kg per os): 60.4%
% Protection ([2]; 20 mg/Kg i.p.): 87.0%
% Protection ([2]; 20 mg/Kg per os): 86.2%
oedema % inhibition ([3]; 25 mg/Kg per os, 2 h): 37.1%
oedema % inhibition ([3]; 25 mg/Kg per os, 4 h): 42.0%
oedema % inhibition ([3]; 25 mg/Kg per os, 6 h): 44.0%
oedema % inhibition ([3]; 25 mg/Kg per os, 24 h): 12.1%
oedema % inhibition ([3]; 25 mg/Kg per os, 48 h): 0.0%
oedema % inhibition ([3]; 25 mg/Kg per os, 72 h): 0.0%
oedema % inhibition ([3]; 25 mg/Kg, Table IV (route not given), 2 h): 39.0%
oedema % inhibition ([3]; 25 mg/Kg, Table IV (route not given), 4 h): 37.1%
oedema % inhibition ([3]; 25 mg/Kg, Table IV (route not given), 6 h): 36.0%
oedema % inhibition ([3]; 25 mg/Kg, Table IV (route not given), 24 h): 11.1%
oedema % inhibition ([3]; 25 mg/Kg, Table IV (route not given), 48 h): 0.0%
oedema % inhibition ([3]; 25 mg/Kg, Table IV (route not given), 72 h): 0.0%
oedema % inhibition ([3]; 50 mg/Kg per os, 2 h): 49.2%
oedema % inhibition ([3]; 50 mg/Kg per os, 4 h): 50.1%
oedema % inhibition ([3]; 50 mg/Kg per os, 6 h): 50.0%
oedema % inhibition ([3]; 50 mg/Kg per os, 24 h): 22.1%
oedema % inhibition ([3]; 50 mg/Kg per os, 48 h): 4.5%
oedema % inhibition ([3]; 50 mg/Kg per os, 72 h): 0.0%
oedema % inhibition ([3]; 50 mg/Kg, Table IV (route not given), 2 h): 52.1%
oedema % inhibition ([3]; 50 mg/Kg, Table IV (route not given), 4 h): 55.0%
oedema % inhibition ([3]; 50 mg/Kg, Table IV (route not given), 6 h): 43.0%
oedema % inhibition ([3]; 50 mg/Kg, Table IV (route not given), 24 h): 17.9%
oedema % inhibition ([3]; 50 mg/Kg, Table IV (route not given), 48 h): 0.0%
oedema % inhibition ([3]; 50 mg/Kg, Table IV (route not given), 72 h): 0.0%
oedema % inhibition ([3]; 100 mg/Kg per os, 2 h): 70.1%
oedema % inhibition ([3]; 100 mg/Kg per os, 4 h): 73.4%
oedema % inhibition ([3]; 100 mg/Kg per os, 6 h): 77.5%
oedema % inhibition ([3]; 100 mg/Kg per os, 24 h): 33.5%
oedema % inhibition ([3]; 100 mg/Kg per os, 48 h): 8.6%
oedema % inhibition ([3]; 100 mg/Kg per os, 72 h): 0.0%
oedema % inhibition ([3]; 100 mg/Kg, Table IV (route not given), 2 h): 79.1%
oedema % inhibition ([3]; 100 mg/Kg, Table IV (route not given), 4 h): 78.0%
oedema % inhibition ([3]; 100 mg/Kg, Table IV (route not given), 6 h): 77.3%
oedema % inhibition ([3]; 100 mg/Kg, Table IV (route not given), 24 h): 24.1%
oedema % inhibition ([3]; 100 mg/Kg, Table IV (route not given), 48 h): 0.0%
oedema % inhibition ([3]; 100 mg/Kg, Table IV (route not given), 72 h): 0.0%
LD50 (Mice; ip): 590 mg/kg
LD50 (Mice; po): 910 mg/kg

COc1ccc2c(c1)c(CC(=O)O)c(C)n2C(=O)c1ccc(Cl)cc1 [Indomethacin, reference compound]
oedema % inhibition ([3]; 2.5 mg/Kg per os, 2 h): 20.6%
oedema % inhibition ([3]; 2.5 mg/Kg per os, 4 h): 33.7%
oedema % inhibition ([3]; 2.5 mg/Kg per os, 6 h): 25.2%
oedema % inhibition ([3]; 2.5 mg/Kg per os, 24 h): 6.0%
oedema % inhibition ([3]; 2.5 mg/Kg per os, 48 h): 0.0%
oedema % inhibition ([3]; 2.5 mg/Kg per os, 72 h): 0.0%
oedema % inhibition ([3]; 2.5 mg/Kg, Table IV (route not given), 2 h): 25.7%
oedema % inhibition ([3]; 2.5 mg/Kg, Table IV (route not given), 4 h): 38.0%
oedema % inhibition ([3]; 2.5 mg/Kg, Table IV (route not given), 6 h): 30.0%
oedema % inhibition ([3]; 2.5 mg/Kg, Table IV (route not given), 24 h): 5.0%
oedema % inhibition ([3]; 2.5 mg/Kg, Table IV (route not given), 48 h): 0.0%
oedema % inhibition ([3]; 2.5 mg/Kg, Table IV (route not given), 72 h): 0.0%
oedema % inhibition ([3]; 5 mg/Kg per os, 2 h): 34.3%
oedema % inhibition ([3]; 5 mg/Kg per os, 4 h): 45.9%
oedema % inhibition ([3]; 5 mg/Kg per os, 6 h): 42.1%
oedema % inhibition ([3]; 5 mg/Kg per os, 24 h): 4.2%
oedema % inhibition ([3]; 5 mg/Kg per os, 48 h): 0.0%
oedema % inhibition ([3]; 5 mg/Kg per os, 72 h): 0.0%
oedema % inhibition ([3]; 5 mg/Kg, Table IV (route not given), 2 h): 39.0%
oedema % inhibition ([3]; 5 mg/Kg, Table IV (route not given), 4 h): 50.1%
oedema % inhibition ([3]; 5 mg/Kg, Table IV (route not given), 6 h): 48.0%
oedema % inhibition ([3]; 5 mg/Kg, Table IV (route not given), 24 h): 7.0%
oedema % inhibition ([3]; 5 mg/Kg, Table IV (route not given), 48 h): 0.0%
oedema % inhibition ([3]; 5 mg/Kg, Table IV (route not given), 72 h): 0.0%
oedema % inhibition ([3]; 10 mg/Kg per os, 2 h): 66.4%
oedema % inhibition ([3]; 10 mg/Kg per os, 4 h): 53.2%
oedema % inhibition ([3]; 10 mg/Kg per os, 6 h): 51.6%
oedema % inhibition ([3]; 10 mg/Kg per os, 24 h): 20.0%
oedema % inhibition ([3]; 10 mg/Kg per os, 48 h): 6.0%
oedema % inhibition ([3]; 10 mg/Kg per os, 72 h): 0.0%
oedema % inhibition ([3]; 10 mg/Kg, Table IV (route not given), 2 h): 70.8%
oedema % inhibition ([3]; 10 mg/Kg, Table IV (route not given), 4 h): 66.6%
oedema % inhibition ([3]; 10 mg/Kg, Table IV (route not given), 6 h): 65.0%
oedema % inhibition ([3]; 10 mg/Kg, Table IV (route not given), 24 h): 16.0%
oedema % inhibition ([3]; 10 mg/Kg, Table IV (route not given), 48 h): 0.0%
oedema % inhibition ([3]; 10 mg/Kg, Table IV (route not given), 72 h): 0.0%
